# Measurements published in article PMC7281072 (Cancers, 2020).
# Like-named read-outs stand apart in the source and are kept apart here.
# Legend:
# OVCAR-3 cancer cell line = test: cells; conditions: Homo sapiens, OVCAR-3, 48 h, read-out: IC50 (cytotoxic effect)
# CB17 SCID mice = conditions: both, mouse, in vivo, ip
# pAKT = test: Western immunoblotting densitometry, pAKT, SKOV-3 cells; type: cell-based, human; conditions: 25 μM; for ratio [pAKT]/[GAPDH] band intensity: SKOV-3 cells; for ratio [pAKT]/[GAPDH] band intensity, single blot (panel A): panel A lower set, cell line not given, control ratio 0.996
# OVCAR-5 cancer cell line [1] = system: OVCAR-5 cancer cell line
# ERK1,2 phosphorylation [2] = test: ERK1/2 phosphorylation ELISA, SK-OV-3 cells; type: cell-based, human; conditions: for Vmax ± SE, pERK 1/2 inhibition: Michaelis Menten model; for IC50: Homo sapiens, read-out: IC50, pERK 1/2 inhibition
# SK-OV-3 cancer cell line = test: cells; conditions: Homo sapiens, SK-OV-3, 48 h
# ERK1,2 phosphorylation [3] = test: ERK1/2 phosphorylation ELISA, UWB1.289 cells; type: cell-based, human; conditions: for Vmax ± SE, pERK 1/2 inhibition: Michaelis Menten model; for IC50: Homo sapiens, read-out: IC50, pERK 1/2 inhibition
# AKT1,2 phosphorylation = test: AKT phosphorylation ELISA, OVCAR-3 cells; type: cell-based, human; conditions: for Vmax ± SE, pAKT 1/2 inhibition: Michaelis Menten model; for IC50: Homo sapiens, read-out: IC50, pAKT 1/2 inhibition
# ERK1,2 phosphorylation [4] = test: ERK1/2 phosphorylation ELISA, OVCAR-5 cells; type: cell-based, human; conditions: for Vmax ± SE, pERK 1/2 inhibition: Michaelis Menten model; for IC50: Homo sapiens, read-out: IC50, pERK 1/2 inhibition
# [5] = system: UWB1.289 cancer cell line
# pERK1,2 [6] = test: Western immunoblotting densitometry, pERK1,2, SKOV-3 cells; type: cell-based, human; conditions: 25 μM; for ratio [pERK1+pERK2]/[GAPDH] band intensity: SKOV-3 cells; for ratio [pERK1+pERK2]/[GAPDH] band intensity, single blot (panel A): panel A lower set, cell line not given
# pERK1,2 [7] = test: Western immunoblotting densitometry, pERK1,2, OVCAR-3 cells; type: cell-based, human; conditions: 25 μM; for ratio [pERK1+pERK2]/[GAPDH] band intensity: OVCAR-3 cells; for ratio [pERK1+pERK2]/[GAPDH] band intensity, single blot (panel A): panel A upper set, cell line not given
# [8] = system: UWB1.289+BRCA1 cancer cell line
# OVCAR-5 cancer cell line [9] = test: cells; conditions: Homo sapiens, OVCAR-5, 48 h
# [10] = read-out: GI50 (50% Growth Inhibition)
# [11] = read-out: IC50 (cytotoxic effect)
compound,measurement,setting,value
"C[C@]12CC[C@H]3[C@@H](CCC4=CC(=O)NCC[C@@]43C)[C@@H]1CC[C@@H]2OC(=O)CCOc1ccc(N(CCCl)CCCl)cc1 [ENGA-L06E, 5a,7a-dimethyl-2-oxo-2,3,4,5,5a,5b,6,7,7a,8,9,10,10a,10b,11,12-hexa decahydrocyclopenta [5, 6] naphtho [1,2-d] azepin-8-yl 3-(4-(bis(2-chloroethyl)amino)phenoxy) propanoate]",IC50,OVCAR-3 cancer cell line,43 ± 2.9 µM
same,LD10,CB17 SCID mice,120 mg/kg
same,ratio [pAKT]/[GAPDH] band intensity,"pAKT; 15min, control ratio 0.98",0.94
same,ratio [pAKT]/[GAPDH] band intensity,"pAKT; 30min, control ratio 0.98",0.78
same,ratio [pAKT]/[GAPDH] band intensity,"pAKT; 1h, control ratio 1.02",0.73
same,ratio [pAKT]/[GAPDH] band intensity,"pAKT; 3h, control ratio 0.99",0.65
same,ratio [pAKT]/[GAPDH] band intensity,"pAKT; 12h, control ratio 0.94",0.58
same,"ratio [pAKT]/[GAPDH] band intensity, single blot (panel A)",pAKT; 1h,0.40
same,"ratio [pAKT]/[GAPDH] band intensity, single blot (panel A)",pAKT; 3h,0.20
same,TGI (Total Growth Inhibition),OVCAR-5 cancer cell line [1],42 ± 2.8 μΜ
same,"Vmax ± SE, pERK 1/2 inhibition","ERK1,2 phosphorylation [2]; 15 min",79.14 ± 2.62
same,"Vmax ± SE, pERK 1/2 inhibition","ERK1,2 phosphorylation [2]; 30 min",82.95 ± 1.69
same,"Vmax ± SE, pERK 1/2 inhibition","ERK1,2 phosphorylation [2]; 60 min",84.71 ± 1.60
same,IC50,"ERK1,2 phosphorylation [2]; 0.25 h, 15 min",13 µM
same,IC50,"ERK1,2 phosphorylation [2]; 0.5 h, 30 min",11 µM
same,IC50,"ERK1,2 phosphorylation [2]; 1 h, 60 min",8.78 µM
same,GI50,SK-OV-3 cancer cell line; [10],18 ± 0.9 µM
same,IC50,SK-OV-3 cancer cell line; [11],76 ± 7.5 µM
same,"Vmax ± SE, pERK 1/2 inhibition","ERK1,2 phosphorylation [3]; 15 min",76.21 ± 2.11
same,"Vmax ± SE, pERK 1/2 inhibition","ERK1,2 phosphorylation [3]; 60 min",89.63 ± 2.53
same,IC50,"ERK1,2 phosphorylation [3]; UWB1289, 0.25 h, 15 min",6.81 µM
same,IC50,"ERK1,2 phosphorylation [3]; UWB1289, 0.5 h, 30 min",4.12 µM
same,IC50,"ERK1,2 phosphorylation [3]; UWB1289, 1 h, 60 min",3.53 µM
same,"Vmax ± SE, pAKT 1/2 inhibition","AKT1,2 phosphorylation; 15 min",57.71 ± 5.51
same,"Vmax ± SE, pAKT 1/2 inhibition","AKT1,2 phosphorylation; 30 min",60.76 ± 2.97
same,"Vmax ± SE, pAKT 1/2 inhibition","AKT1,2 phosphorylation; 60 min",62.20 ± 5.12
same,IC50,"AKT1,2 phosphorylation; 0.25 h, 15 min",29.1 µM
same,IC50,"AKT1,2 phosphorylation; 0.5 h, 30 min",24.4 µM
same,IC50,"AKT1,2 phosphorylation; 1 h, 60 min",18.3 µM
same,"Vmax ± SE, pERK 1/2 inhibition","ERK1,2 phosphorylation [4]; 15 min",68.95 ± 3.21
same,"Vmax ± SE, pERK 1/2 inhibition","ERK1,2 phosphorylation [4]; 30 min",74.99 ± 2.47
same,"Vmax ± SE, pERK 1/2 inhibition","ERK1,2 phosphorylation [4]; 60 min",80.67 ± 1.52
same,IC50,"ERK1,2 phosphorylation [4]; 0.25 h, 15 min",20 µM
same,IC50,"ERK1,2 phosphorylation [4]; 0.5 h, 30 min",14.1 µM
same,IC50,"ERK1,2 phosphorylation [4]; 1 h, 60 min",9.18 µM
same,TGI (Total Growth Inhibition),[5],8 ± 0.8 μΜ
same,ratio [pERK1+pERK2]/[GAPDH] band intensity,"pERK1,2 [6]; 15min, control ratio 1.70",1.91
same,ratio [pERK1+pERK2]/[GAPDH] band intensity,"pERK1,2 [6]; 30min, control ratio 1.70",1.74
same,ratio [pERK1+pERK2]/[GAPDH] band intensity,"pERK1,2 [6]; 1h, control ratio 1.78",1.35
same,ratio [pERK1+pERK2]/[GAPDH] band intensity,"pERK1,2 [6]; 3h, control ratio 1.74",0.68
same,ratio [pERK1+pERK2]/[GAPDH] band intensity,"pERK1,2 [6]; 12h, control ratio 1.61",0.65
same,"ratio [pERK1+pERK2]/[GAPDH] band intensity, single blot (panel A)","pERK1,2 [6]; 1h, control ratio 1.78",0.99
same,"ratio [pERK1+pERK2]/[GAPDH] band intensity, single blot (panel A)","pERK1,2 [6]; 3h, control ratio 1.78",0.39
same,ratio [pERK1+pERK2]/[GAPDH] band intensity,"pERK1,2 [7]; 30min, control ratio 1.71",1.40
same,ratio [pERK1+pERK2]/[GAPDH] band intensity,"pERK1,2 [7]; 1h, control ratio 1.65",0.96
same,ratio [pERK1+pERK2]/[GAPDH] band intensity,"pERK1,2 [7]; 3h, control ratio 1.99",1.11
same,ratio [pERK1+pERK2]/[GAPDH] band intensity,"pERK1,2 [7]; 6h, control ratio 1.85",0.54
same,ratio [pERK1+pERK2]/[GAPDH] band intensity,"pERK1,2 [7]; 12h, control ratio 1.82",0.49
same,ratio [pERK1+pERK2]/[GAPDH] band intensity,"pERK1,2 [7]; 24h, control ratio 1.92",0.58
same,"ratio [pERK1+pERK2]/[GAPDH] band intensity, single blot (panel A)","pERK1,2 [7]; 1h, control ratio 1.85",0.74
same,"ratio [pERK1+pERK2]/[GAPDH] band intensity, single blot (panel A)","pERK1,2 [7]; 3h, control ratio 1.85",1.02
same,TGI (Total Growth Inhibition),[8],28 ± 1.9 μΜ
same,GI50,OVCAR-5 cancer cell line [9]; [10],25 ± 1.4 µM
same,IC50,OVCAR-5 cancer cell line [9]; [11],65 ± 3.4 µM
